Data from patent US20250304594A1, “METHYL (R)-2-(FLUOROMETHYL)-5-OXO-4-PHENYL-4,5,6,7-TETRAHYDRO-1H-CYCLOPENTA[B]PYRIDINE-3-CARBOXYLATE AND METHYL (R)-2-(FLUOROMETHYL)-5-OXO-4-PHENYL-1,4,5,7-TETRAHYDROFURO[3,4-B]PYRIDINE-3-CARBOXYLATE AS Cav1,2 ACTIVATORS” (Novartis AG, priority 2020, published 2025).
Values belong to the compound of their own block, whether it stands above or below them.

Key:
[1] = Compound exposure in wild-type mice (brain and blood levels); assay type: in vivo, C57BL/6J male mice; settings: male, C57BL/6J, mouse, brain (cerebellum) / blood, intraperitoneal, Table 10 comparative examples; read-out: Brain:blood ratio
Procedure: Compound administration and brain tissue collection. Wild-type C57BL/6J male mice were obtained from Jackson laboratories (Bar Harbor, ME). The acute, single-dose effects of CaV1.2 activators of the present disclosure were evaluated in male eight-week old mice (n=6 mice per compound). Each compound was dissolved in 10% PEG300, 10% Solutol, 10% Cremophore EL, and 70% Phosphate Buffered Saline and administered intraperitoneal (i.p.) at a concentration of 1 mg/kg up to 30 mg/kg depending on the compound. Animals were euthanized one hour after compound administration via exsanguination under deep anesthesia. Blood was collected in EDTA tubes for downstream analysis of drug levels. Brains were rapidly removed from the skull, and the cerebral cortex and cerebellum were regionally dissected. Cerebellar samples were snap frozen in liquid nitrogen to assess compound exposure. Cortical samples for cFos assessment were placed in 500 μl of RNAlater solution (ThermoFisher) to preserve the integrity of RNA in the sample. Samples remained in RNAlater for at least 24 hours at 4° C. before moving to −80° C. for storage before processing.
Quantification of compound exposure. Cerebellar tissue samples were homogenized in 4 ml of 20% acetonitrile and 80% Phosphate buffered saline for every 1 g of tissue (5× dilution). Tissue was homogenized using either of the following three methods: hand held probe system, TissueLyser system with 5 mm steel bead at a frequency of 30 s^−1 for 4 min, or OMNI Bead Ruptor Elite homogenizer for 30 seconds to 1 minute depending on tissue type. Tissue samples were added to a 96-well plate (12.5 uL sample) and processed for quantification by mass spectrometry.

[2] = target: T1, human CaV1.2 (Homo sapiens, UniProt Q13936); assay: QPatch channel biophysics assay (channel gating, V1/2 of activation, inactivation) in CaV1.2-HEK293(AUX) cells; assay type: cell-based; settings: Table 10 comparative examples
T1 construct: expressed in transfected cells; host or cells: Flp-In 293 T-Rex (HEK293), monoclonal CaV1.2-HEK293(AUX) clone 2-19B; doxycycline-induced auxiliary subunits
Text: (§1) The monoclonal CaV1.2-HEK293(AUX) cell line constitutively expresses human CaV1.2 alpha1C (α1C) subunit (CACNA1C) and has doxycycline-inducible expression of the alpha2delta (α2Δ2) auxiliary subunit (CACNA2D2) and beta2 (02) auxiliary subunit (CACNB2). To generate the cell line, expression vectors pcDNA5.0/FRT-TO-CACNA2D2-FCS-P2A-CACNB2 and pCMV6-entry-CACNA1C were established via gene synthesis and cloning. Here, pcDNA5.0/FRT-TO plasmid is from Invitrogen, pCMV6-entry is from Origene, FCS stands for Furin Cleavage Site, P2A is a peptide self-cleavage sequence derived from porcine teschovirus-1, and FRT is the Flippase recognition target site. Next, parental line Flp-In™ 293 T-Rex (Invitrogen) was transfected with pcDNA5.0/FRT-TO-CACNA2D2-FCS-P2A-CACNB2 and Flippase vector pOG44 (Invitrogen) to establish targeted integration of the CACNA2D2-FCS-P2A-CACNB2 expression cassette into the pre-engineered FRT site in Flp-In™ 293 T-Rex. This intermediate cell line was then transfected with pCMV6-entry-CACNA1C to establish stable CACNA1C expression. Clonal isolation was achieved under Neomycin selection. A cell clone (2-19B) with good voltage-dependent Barium current (see electrophysiology methods below) was selected for characterization of CaV1.2 activators.
(§2) 24 hours prior an electrophysiology experiment, doxycycline (1 μg/ml) was added to the growth medium (Table 6), and 25 μM of verapamil was co-applied to prevent calcium influx triggered cell death. Cell confluency should reach 70%-80% right before the experiment. To harvest cells (from a T175 cm^2 flask as an example), growth media were removed completely, and the cells were rinsed with 10 mL of D-PBS. D-PBS was aspirated, and 10 mL of Detachin (Genlantis) was added and the plate was placed in a 37° C. incubator for 10 minutes. Detached cells were placed into a 15 mL conical tube and spun at 1000 rpm for 2 minutes. Supernatant was removed, and cells were re-suspended in QPatch complete media (Table 7) to desired cell density of 1.5-3 million cells per QPatch run. Each experimental run uses 1.5 mL of cells.
The cells suspension was taken to the Sophion QPatch platform that uses whole-cell voltage clamp to measure barium currents conducted through CaV1.2 on single-hole QPlates. Extracellular and intracellular patch clamp solutions are described in Tables 7 and 8, respectively. A dose-response assay protocol was used to determine the maximal fold change of peak inward current (Emax) and potency (EC50) of each compound. The protocol had eight liquid periods. The first liquid period was to stabilize current amplitude, which was monitored using repetitive 200-ms voltage pulses stepping from −80 mV to 0 mV. The second liquid period was to determine baseline current amplitude in the presence of vehicle control, using a single 20-ms voltage pulse stepping from −80 mV to 0 mV. The third through eighth liquid periods were used to ascertain a 6-dose response to compound treatments, also using single 20-ms voltage pulses stepping from −80 mV to 0 mV. The EC50 was generated using the following equation Iconcentration=Ibase+(Ifull−Ibase)*c^n/(XC50^n+c^n), where c is the concentration and n is the Hill coefficient constant. Ifull is the maximal current achievable, and Ibase is 0. A channel biophysics assay protocol was used to determine channel gating properties including current-voltage relationship (IV curves), half-way channel activation voltage (V1/2), rate of channel inactivation (tau), and amplitude of tail current. Among these, V1/2 was derived from fitting equation G(V)=Gvmin+(Gvmax−Gvmin)/(1+exp(−(V−V½)/Vslope)), where G stands for conductance, Gvmin equals 0, Gvmax is the maximal conductance, and Vslope is a slope factor. G(V) was pre-calculated from equation G(V)=I(V)/(V−0.06), for each experimentally applied depolarization potential (V) and the corresponding current amplitude (I(V)), and 0.06 in the equation was the experimentally determined reversal potential in volts. […]

[3] = target: T1, human CaV1.2; assay: Sophion QPatch dose-response assay, whole-cell voltage clamp of barium currents in CaV1.2-HEK293(AUX) cells; assay type: cell-based; settings: Table 10 comparative examples; maximal fold change of peak inward current
Text: as §1, with “selection.” for “selection. A cell clone (2-19B) with good voltage-dependent Barium current (see electrophysiology methods below) was selected for characterization of CaV1.2 activators.”
Electrophysiological Characterization of CaV1.2 Activators Using CaV1.2-HEK293(AUX) Cell Line and QPatch
as §2
The cells suspension was taken to the Sophion QPatch platform that uses whole-cell voltage clamp to measure barium currents conducted through CaV1.2 on single-hole QPlates. Extracellular and intracellular patch clamp solutions are described in Tables 7 and 8, respectively. A dose-response assay protocol was used to determine the maximal fold change of peak inward current (Emax) and potency (EC50) of each compound. The protocol had eight liquid periods. The first liquid period was to stabilize current amplitude, which was monitored using repetitive 200-ms voltage pulses stepping from −80 mV to 0 mV. The second liquid period was to determine baseline current amplitude in the presence of vehicle control, using a single 20-ms voltage pulse stepping from −80 mV to 0 mV. The third through eighth liquid periods were used to ascertain a 6-dose response to compound treatments, also using single 20-ms voltage pulses stepping from −80 mV to 0 mV. The EC50 was generated using the following equation Iconcentration=Ibase+(Ifull−Ibase)*c^n/(XC50^n+c^n), where c is the concentration and n is the Hill coefficient constant. Ifull is the maximal current achievable, and Ibase is 0. A channel biophysics assay protocol was used to determine channel gating properties including current-voltage relationship (IV curves), half-way channel activation voltage (V1/2), rate of channel inactivation (tau), and amplitude of tail current. Among these, V1/2 was derived from fitting equation G(V)=Gvmin+(Gvmax−Gvmin)/(1+exp(−(V−V½)/Vslope)), where G stands for conductance, Gvmin equals 0, Gvmax is the maximal conductance, and Vslope is a slope factor. G(V) was pre-calculated from equation G(V)=I(V)/(V−0.06), for each experimentally applied depolarization potential (V) and the corresponding current amplitude (I(V)), and 0.06 in the equation was the experimentally determined reversal potential in volts. The protocol had four liquid periods.

[4] = Hygroscopicity / water sorption of crystalline hydrates versus relative humidity; assay type: physicochemical

T1 sequence (Q13936 1-2138 isoform Q13936-23): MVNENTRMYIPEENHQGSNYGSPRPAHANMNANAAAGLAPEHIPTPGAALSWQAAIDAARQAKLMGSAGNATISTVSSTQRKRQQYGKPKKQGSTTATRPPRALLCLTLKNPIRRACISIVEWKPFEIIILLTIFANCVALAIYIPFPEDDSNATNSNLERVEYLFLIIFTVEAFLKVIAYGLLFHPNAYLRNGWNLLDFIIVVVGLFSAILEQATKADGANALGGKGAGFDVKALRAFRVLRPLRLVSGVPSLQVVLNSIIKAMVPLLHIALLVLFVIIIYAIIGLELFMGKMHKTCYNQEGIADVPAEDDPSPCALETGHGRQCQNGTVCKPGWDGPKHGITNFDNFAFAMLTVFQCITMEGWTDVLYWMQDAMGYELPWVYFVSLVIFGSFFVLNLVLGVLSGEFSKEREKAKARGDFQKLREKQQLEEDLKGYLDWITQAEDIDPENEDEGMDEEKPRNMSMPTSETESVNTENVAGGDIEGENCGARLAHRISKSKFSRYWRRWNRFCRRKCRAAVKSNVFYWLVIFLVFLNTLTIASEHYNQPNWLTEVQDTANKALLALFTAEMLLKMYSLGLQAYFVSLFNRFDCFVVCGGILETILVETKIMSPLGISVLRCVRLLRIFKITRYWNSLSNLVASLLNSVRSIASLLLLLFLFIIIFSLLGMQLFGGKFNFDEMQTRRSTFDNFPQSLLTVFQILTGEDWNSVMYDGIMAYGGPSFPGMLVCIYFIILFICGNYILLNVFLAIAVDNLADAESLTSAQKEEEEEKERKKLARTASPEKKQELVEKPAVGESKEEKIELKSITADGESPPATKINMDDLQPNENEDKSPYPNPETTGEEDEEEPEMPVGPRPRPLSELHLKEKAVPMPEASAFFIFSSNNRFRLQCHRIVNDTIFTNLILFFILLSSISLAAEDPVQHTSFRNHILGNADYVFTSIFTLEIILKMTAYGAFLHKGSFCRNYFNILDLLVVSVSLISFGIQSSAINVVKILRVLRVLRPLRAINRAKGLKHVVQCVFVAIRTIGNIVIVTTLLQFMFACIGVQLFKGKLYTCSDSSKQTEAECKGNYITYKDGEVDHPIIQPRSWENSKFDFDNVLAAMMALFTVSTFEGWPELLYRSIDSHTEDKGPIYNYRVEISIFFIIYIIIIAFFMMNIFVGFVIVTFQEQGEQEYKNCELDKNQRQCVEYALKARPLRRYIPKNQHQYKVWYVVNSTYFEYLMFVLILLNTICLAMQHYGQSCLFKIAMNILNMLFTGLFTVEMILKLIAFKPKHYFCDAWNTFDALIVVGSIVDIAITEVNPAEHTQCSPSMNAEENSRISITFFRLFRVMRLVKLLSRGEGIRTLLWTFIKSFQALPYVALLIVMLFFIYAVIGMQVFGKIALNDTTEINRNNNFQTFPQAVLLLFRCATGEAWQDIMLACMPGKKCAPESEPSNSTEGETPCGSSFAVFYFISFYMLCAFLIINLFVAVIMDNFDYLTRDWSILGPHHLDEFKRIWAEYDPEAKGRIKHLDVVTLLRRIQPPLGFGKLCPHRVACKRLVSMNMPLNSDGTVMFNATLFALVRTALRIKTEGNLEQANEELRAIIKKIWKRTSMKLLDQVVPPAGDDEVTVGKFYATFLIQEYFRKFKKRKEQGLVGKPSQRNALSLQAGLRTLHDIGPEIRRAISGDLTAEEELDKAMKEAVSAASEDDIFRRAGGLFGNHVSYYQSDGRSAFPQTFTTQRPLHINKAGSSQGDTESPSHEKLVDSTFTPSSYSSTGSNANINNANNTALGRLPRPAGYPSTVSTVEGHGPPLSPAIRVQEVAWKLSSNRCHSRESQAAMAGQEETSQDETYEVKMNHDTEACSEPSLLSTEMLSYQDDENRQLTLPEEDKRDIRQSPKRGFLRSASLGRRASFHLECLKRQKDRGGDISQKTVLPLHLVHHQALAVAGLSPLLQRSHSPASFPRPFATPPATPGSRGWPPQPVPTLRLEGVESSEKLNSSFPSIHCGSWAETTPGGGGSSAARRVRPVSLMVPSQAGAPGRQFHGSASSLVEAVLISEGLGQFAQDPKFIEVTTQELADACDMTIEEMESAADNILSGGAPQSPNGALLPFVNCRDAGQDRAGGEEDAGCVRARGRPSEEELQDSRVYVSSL
T1 sequence (Q9NY47 19-1001 partner limits assumed): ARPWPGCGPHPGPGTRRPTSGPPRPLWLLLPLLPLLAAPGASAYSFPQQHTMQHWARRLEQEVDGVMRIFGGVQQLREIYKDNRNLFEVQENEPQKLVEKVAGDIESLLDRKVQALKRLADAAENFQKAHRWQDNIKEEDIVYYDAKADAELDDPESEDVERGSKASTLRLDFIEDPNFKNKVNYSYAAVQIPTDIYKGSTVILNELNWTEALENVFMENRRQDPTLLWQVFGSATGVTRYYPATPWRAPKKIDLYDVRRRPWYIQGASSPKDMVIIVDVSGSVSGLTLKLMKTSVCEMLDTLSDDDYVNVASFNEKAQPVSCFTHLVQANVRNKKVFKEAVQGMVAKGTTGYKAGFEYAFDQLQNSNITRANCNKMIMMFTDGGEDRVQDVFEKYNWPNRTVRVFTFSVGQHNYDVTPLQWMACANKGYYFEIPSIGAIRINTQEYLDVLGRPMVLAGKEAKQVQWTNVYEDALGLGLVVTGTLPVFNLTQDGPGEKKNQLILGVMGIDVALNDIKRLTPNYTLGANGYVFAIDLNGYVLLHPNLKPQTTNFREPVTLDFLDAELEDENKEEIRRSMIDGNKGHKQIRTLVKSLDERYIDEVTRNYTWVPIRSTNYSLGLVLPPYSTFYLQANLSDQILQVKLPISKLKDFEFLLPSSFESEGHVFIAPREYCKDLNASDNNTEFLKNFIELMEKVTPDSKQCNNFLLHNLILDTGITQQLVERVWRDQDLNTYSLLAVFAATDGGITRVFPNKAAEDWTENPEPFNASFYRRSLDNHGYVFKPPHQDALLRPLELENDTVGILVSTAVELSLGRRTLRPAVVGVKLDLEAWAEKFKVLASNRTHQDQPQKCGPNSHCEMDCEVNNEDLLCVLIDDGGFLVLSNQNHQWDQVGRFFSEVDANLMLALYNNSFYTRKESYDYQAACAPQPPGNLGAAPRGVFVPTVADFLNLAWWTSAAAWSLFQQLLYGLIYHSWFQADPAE
T1 sequence (Q9NY47 1002-1150 partner limits assumed): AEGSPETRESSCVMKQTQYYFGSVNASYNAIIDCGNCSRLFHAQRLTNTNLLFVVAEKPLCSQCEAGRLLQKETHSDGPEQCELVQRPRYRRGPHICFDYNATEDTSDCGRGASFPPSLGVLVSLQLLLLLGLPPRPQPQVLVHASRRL
T1 sequence (Q08289 whole entry partner): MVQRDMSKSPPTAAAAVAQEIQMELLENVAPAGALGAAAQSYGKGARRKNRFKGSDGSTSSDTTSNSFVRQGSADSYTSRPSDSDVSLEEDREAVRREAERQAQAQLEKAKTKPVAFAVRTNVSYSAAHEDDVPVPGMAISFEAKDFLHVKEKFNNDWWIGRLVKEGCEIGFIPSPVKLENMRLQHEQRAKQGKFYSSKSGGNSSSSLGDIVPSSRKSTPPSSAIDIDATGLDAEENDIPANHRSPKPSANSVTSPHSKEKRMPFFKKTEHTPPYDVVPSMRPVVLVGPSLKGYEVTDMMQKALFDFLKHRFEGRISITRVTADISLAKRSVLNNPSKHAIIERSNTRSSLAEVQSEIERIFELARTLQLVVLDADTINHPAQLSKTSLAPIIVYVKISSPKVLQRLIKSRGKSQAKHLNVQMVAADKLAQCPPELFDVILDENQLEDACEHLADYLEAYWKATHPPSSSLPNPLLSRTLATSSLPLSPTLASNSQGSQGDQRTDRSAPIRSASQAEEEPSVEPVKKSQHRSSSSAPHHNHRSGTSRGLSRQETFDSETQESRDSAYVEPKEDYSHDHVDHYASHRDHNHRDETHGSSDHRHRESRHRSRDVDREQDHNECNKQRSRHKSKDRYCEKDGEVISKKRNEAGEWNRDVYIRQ

- Kp at 1 h [1]: 0.23
SMILES: CCOC(=O)C1=C(C)NC2=C(C(=O)OC2)[C@H]1c1ccccc1OC(F)F (single isomer, unassigned) [CGP028392, reference compound]
- Biophysics voltage shift (mV) [2]: −6.7 mV
- Qpatch Emax [3]: 2.2

- hygroscopicity [4]: slightly hygroscopic
- water uptake ([4]; between 10% to 95% RH at 25° C.): about 0.2%
SMILES: COC(=O)C1=C(CF)NC2=C(C(=O)OC2)[C@H]1c1cccc(F)c1[C@@H](C)F [Hydrate A, methyl (R)-4-(3-fluoro-2-((R)-1-fluoroethyl)phenyl)-2-(fluoromethyl)-5-oxo-1,4,5,7-tetrahydrofuro[3,4-b]pyridine-3-carboxylate]

- water uptake upon subsequent increase of the relative humidity ([4]; 25° C.): about 3%
- loss of water on dehydration ([4]; starts below 20% RH, until 0% RH): about 4.4%
SMILES: COC(=O)C1=C(CF)NC2=C(C(=O)OC2)[C@H]1c1cccc(F)c1[C@@H](C)F [Hydrate B, methyl (R)-4-(3-fluoro-2-((R)-1-fluoroethyl)phenyl)-2-(fluoromethyl)-5-oxo-1,4,5,7-tetrahydrofuro[3,4-b]pyridine-3-carboxylate]
